According to ChEMBL document CHEMBL1201862, “PubChem BioAssay data set” (2004):
Calls of active or inactive are those of the source.

Key:
cells [1] = assay type: functional, cell-based
[2] = biological target: T1, Trace amine-associated receptor 1 (Homo sapiens, UniProt Q96RJ0); test: Fluorescence-based cell-based high throughput dose response assay to identify agonists of the human trace amine associated receptor 1 (TAAR1).; assay type: functional
T1 sequence (Q96RJ0 whole entry): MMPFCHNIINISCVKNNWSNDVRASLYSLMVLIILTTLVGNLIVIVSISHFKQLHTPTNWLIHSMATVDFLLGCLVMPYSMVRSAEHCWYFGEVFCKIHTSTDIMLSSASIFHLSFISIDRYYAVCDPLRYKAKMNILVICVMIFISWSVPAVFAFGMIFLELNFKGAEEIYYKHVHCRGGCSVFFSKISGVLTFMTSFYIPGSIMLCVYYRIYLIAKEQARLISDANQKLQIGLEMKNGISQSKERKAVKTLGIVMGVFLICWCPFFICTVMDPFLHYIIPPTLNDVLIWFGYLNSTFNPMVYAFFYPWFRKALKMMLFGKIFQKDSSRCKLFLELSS

[3] = biological target: T1, Trace amine-associated receptor 1; test: Counterscreen for agonists of the human trace amine associated receptor 1 (hTAAR1): Fluorescence-based cell-based high throughput dose response assay to identify hTAAR1 agonist that also desensitize TAAR1 receptor response.; assay type: functional
cells [4] = assay type: functional, cell-based; remark: listed apart in the source
fMet-Leu-Phe receptor = fMet-Leu-Phe receptor (Homo sapiens, UniProt P21462); test: FPR ligands, dose response (AID 519); assay type: functional
[5] = inhibitors of intracellular T. cruzi replication, confirmation, NIH3T3 host cells, beta-gal luminescence (AID 2044); assay type: functional, cell-based;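 also: intracellular parasites grown in NIH/3T3 mouse fibroblasts as host cells; luminescent beta-galactosidase reporter signal from transgenic T. cruzi replicating inside host cells; inhibitors lower the luminescence signal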
[6] = cytotoxicity toward NIH3T3 fibroblasts, dose response, counter-screen, cell-based, ATP luminescence, mouse fibroblasts (AID 2010); assay type: functional;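 also: cells exposed to compound for about 90 hours before reading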
[7] = biological target: T2, Methionyl-tRNA synthetase, putative (Trypanosoma brucei brucei, UniProt Q38C91); assay type: functional, Trypanosoma brucei brucei strain 927/4 GUTat10.1
T2 sequence (Q38C91 whole entry): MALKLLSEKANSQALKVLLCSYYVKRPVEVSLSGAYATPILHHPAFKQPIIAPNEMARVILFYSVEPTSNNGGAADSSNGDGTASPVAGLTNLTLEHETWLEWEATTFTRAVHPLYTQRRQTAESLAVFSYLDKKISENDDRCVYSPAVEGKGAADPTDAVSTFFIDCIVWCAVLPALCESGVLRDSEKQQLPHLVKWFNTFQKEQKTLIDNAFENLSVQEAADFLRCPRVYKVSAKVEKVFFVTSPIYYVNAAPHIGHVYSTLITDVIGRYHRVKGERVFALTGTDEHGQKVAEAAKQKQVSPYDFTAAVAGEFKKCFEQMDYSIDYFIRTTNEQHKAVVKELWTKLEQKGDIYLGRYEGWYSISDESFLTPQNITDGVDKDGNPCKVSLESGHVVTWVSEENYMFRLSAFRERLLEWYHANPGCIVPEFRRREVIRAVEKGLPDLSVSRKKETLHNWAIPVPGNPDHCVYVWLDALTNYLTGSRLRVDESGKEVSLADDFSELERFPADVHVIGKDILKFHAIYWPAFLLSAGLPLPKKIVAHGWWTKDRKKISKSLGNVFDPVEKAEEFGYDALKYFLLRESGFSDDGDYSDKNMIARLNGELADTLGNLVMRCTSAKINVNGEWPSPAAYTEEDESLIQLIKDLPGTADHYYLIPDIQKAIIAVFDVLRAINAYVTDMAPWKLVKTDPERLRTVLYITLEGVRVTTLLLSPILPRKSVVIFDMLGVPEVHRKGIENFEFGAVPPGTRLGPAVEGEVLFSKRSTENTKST

[8] = Counterscreen for inhibitors of Trypanosoma brucei methionyl tRNA synthetase (MetRS): Luminescence-based cell-based high throughput dose response assay to identify compounds that are cytotoxic to Jurkat human T lymphocyte cells.; assay type: functional
[9] = biological target: T2, Methionyl-tRNA synthetase, putative; assay type: functional, Trypanosoma brucei brucei strain 927/4 GUTat10.1; remark: listed apart in the source
[10] = biological target: Mitogen-activated protein kinase 10 (Homo sapiens, UniProt P53779); test: Dose response biochemical screening assay for inhibitors of c-Jun N-Terminal Kinase 3 (JNK3). [Related pubchem assays: 746 ]
Major prion protein = Major prion protein (Homo sapiens, UniProt P04156); assay type: functional, cell-based
cells [11] = test: cells
[12] = Luminescence-based cell-based high throughput dose response assay to identify activators of the DAF-12 from the parasite S. stercoralis (ssDAF-12).; assay type: functional
HEK293 [13] = test: NOD1 signaling inhibitors, primary screen, cell-based, luminescence, uHTS (AID 1578); assay type: functional; details: Homo sapiens
HEK293 [14] = test: cells; assay type: functional, cell-based; details: Homo sapiens
HEK293 [15] = test: cells; assay type: functional, cell-based; details: Homo sapiens; remark: listed apart in the source
[16] = biological target: Nucleotide-binding oligomerization domain-containing protein 2 (Homo sapiens, UniProt Q9HC29); test: NOD2 signaling inhibitors, cell-based, luminescence, uHTS, HEK293 (AID 1566); assay type: functional
HEK293 [17] = test: NOD2 signaling inhibitors in MDP-stimulated cells, cell-based, uHTS, luminescence (AID 2001); assay type: functional; details: Homo sapiens
HEK293 [18] = test: cells; assay type: functional, cell-based; details: Homo sapiens; remark: listed apart in the source
[19] = biological target: T3, Replicative DNA helicase DnaB (Mycobacterium tuberculosis, UniProt P9WMR3); test: DnaB intein splicing inhibitors, dose response, biochemical, cell-free fluorescence (AID 449749); assay type: functional
T3 sequence (P9WMR3 whole entry): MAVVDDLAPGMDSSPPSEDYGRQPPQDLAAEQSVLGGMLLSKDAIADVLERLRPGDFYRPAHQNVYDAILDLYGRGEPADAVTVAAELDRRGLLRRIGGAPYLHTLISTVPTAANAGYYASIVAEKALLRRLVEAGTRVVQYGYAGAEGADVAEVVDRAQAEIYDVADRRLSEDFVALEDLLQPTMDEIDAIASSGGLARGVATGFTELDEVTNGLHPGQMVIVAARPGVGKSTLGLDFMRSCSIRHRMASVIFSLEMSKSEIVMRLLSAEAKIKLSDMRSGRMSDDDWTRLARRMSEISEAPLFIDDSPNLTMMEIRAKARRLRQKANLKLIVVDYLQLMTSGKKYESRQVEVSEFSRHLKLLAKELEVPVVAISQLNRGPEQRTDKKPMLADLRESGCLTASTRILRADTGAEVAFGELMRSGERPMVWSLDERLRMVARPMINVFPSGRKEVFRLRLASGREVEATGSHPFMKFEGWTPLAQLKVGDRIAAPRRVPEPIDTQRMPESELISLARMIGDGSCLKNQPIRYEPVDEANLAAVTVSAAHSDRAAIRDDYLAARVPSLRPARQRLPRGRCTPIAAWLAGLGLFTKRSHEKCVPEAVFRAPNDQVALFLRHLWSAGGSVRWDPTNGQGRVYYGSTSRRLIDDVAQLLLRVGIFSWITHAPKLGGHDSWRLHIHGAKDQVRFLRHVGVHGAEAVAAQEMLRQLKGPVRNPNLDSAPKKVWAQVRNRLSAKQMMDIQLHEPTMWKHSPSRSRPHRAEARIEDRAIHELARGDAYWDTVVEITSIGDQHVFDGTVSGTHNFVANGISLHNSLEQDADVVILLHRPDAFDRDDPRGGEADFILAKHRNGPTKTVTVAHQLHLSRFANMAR

Protein RecA = biological target: T4, Protein RecA (Mycobacterium tuberculosis, UniProt P9WHJ3); test: Fluorescence Cell-Free Homogeneous Dose Retest to Identify Inhibitors of RecA-Intein Splicing Activity. [Related pubchem assays (depositor defined):AID2097, AID2223, AID489010, AID492950]; assay type: functional
T4 sequence (P9WHJ3 whole entry): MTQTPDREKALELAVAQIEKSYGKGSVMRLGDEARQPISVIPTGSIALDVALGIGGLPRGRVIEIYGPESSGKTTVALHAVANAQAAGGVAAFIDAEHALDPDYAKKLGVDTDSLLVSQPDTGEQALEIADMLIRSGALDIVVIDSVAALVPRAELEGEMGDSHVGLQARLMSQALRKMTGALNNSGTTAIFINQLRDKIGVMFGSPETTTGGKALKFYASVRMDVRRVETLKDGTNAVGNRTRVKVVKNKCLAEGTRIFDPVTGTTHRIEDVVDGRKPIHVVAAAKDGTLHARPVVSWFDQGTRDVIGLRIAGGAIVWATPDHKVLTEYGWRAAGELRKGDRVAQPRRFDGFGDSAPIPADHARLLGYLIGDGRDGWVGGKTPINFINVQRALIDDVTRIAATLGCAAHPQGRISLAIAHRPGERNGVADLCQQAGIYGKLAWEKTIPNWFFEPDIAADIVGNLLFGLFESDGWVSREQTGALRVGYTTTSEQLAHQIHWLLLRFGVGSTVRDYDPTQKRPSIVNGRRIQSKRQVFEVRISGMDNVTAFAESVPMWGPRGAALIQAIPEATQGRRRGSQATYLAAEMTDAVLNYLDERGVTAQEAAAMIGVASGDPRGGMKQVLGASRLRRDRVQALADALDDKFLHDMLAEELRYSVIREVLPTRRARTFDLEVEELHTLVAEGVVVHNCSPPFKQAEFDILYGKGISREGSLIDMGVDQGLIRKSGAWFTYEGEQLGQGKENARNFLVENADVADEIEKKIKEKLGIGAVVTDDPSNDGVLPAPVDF

Chain of fMet-Leu-Phe receptor (P21462 whole entry): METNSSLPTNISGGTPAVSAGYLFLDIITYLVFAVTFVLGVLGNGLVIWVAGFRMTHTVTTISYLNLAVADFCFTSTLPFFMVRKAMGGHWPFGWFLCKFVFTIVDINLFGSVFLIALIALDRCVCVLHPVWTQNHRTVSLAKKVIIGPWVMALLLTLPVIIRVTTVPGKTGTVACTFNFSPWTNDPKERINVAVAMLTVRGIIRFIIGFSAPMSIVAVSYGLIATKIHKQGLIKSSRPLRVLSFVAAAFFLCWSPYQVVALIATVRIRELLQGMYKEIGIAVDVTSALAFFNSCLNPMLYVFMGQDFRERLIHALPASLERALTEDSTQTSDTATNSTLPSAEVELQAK
Chain of Mitogen-activated protein kinase 10 (P53779 whole entry): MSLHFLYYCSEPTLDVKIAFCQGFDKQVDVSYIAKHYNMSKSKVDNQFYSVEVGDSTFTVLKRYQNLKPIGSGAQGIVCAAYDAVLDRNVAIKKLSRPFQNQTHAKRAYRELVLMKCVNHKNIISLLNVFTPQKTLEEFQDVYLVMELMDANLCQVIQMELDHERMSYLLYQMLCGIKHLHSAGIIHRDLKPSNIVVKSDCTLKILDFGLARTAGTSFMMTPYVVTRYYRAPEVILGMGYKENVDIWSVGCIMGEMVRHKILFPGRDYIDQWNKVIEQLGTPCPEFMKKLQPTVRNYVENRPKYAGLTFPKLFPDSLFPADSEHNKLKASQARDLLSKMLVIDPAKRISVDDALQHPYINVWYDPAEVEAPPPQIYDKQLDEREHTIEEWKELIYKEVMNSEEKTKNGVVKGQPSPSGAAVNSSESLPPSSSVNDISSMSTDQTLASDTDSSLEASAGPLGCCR
Chain of Nucleotide-binding oligomerization domain-containing protein 2 (Q9HC29 whole entry, the tested form may be a part): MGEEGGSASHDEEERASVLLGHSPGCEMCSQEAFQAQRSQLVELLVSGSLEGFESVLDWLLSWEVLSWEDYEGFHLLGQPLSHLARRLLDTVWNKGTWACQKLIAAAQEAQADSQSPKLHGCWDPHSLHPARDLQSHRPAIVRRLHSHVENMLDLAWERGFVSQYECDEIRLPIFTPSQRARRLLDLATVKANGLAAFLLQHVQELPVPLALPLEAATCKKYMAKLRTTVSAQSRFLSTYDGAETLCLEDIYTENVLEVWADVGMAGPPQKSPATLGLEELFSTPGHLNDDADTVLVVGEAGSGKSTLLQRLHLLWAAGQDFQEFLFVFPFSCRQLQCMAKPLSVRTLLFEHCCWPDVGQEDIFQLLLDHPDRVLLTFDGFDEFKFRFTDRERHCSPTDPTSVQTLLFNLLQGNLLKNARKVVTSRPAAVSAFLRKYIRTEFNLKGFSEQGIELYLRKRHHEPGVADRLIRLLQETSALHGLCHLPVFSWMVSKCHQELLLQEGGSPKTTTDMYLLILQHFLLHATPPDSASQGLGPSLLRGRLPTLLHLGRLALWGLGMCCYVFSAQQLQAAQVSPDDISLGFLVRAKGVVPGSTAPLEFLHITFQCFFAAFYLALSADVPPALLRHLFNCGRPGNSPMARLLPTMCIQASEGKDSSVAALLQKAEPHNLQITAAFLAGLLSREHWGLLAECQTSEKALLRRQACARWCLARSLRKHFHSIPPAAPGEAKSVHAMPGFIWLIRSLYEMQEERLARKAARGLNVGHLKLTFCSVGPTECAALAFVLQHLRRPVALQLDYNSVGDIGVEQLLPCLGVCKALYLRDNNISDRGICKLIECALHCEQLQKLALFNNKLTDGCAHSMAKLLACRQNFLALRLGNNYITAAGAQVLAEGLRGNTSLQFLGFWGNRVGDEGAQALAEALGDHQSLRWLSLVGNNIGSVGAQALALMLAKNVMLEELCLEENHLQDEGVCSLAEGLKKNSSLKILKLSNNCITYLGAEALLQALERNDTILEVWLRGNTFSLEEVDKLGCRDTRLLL

**Q.** For `CC1=C(NCCc2ccccc2)CCC1=O`, which IC50 (cells [1]) is on record?
**A.** > 29.9 µM (inactive)

**Q.** And the EC50 [2]?
**A.** 1.16 µM (active)

**Q.** What about the IC50 [3] of the same compound?
**A.** 5.79 µM (active)

**Q.** What about the EC50 (cells [4]) of the same compound?
**A.** > 29.9 µM (inactive)

**Q.** With `COCCCN1C(=O)C(O)=C(C(=O)c2ccco2)C1c1ccccc1` (configuration not stated) as the compound, how does the Ki (fMet-Leu-Phe receptor) read?
**A.** 14.5 µM (active)

**Q.** For `O=C(CCNS(=O)(=O)c1ccc(Br)s1)Nc1ccc(Cl)cc1`, which EC50 [5] is on record?
**A.** 3.44 µM (active)

**Q.** What about the EC50 [6] of the same compound?
**A.** > 60 µM (inconclusive)

**Q.** What about the IC50 [7] of the same compound?
**A.** 3.53 µM (active)

**Q.** And the IC50 [8]?
**A.** 83.3 µM (inactive)

**Q.** And the IC50 [9]?
**A.** 1.85 µM (active)

**Q.** For `COc1ccc(CN(C(=O)c2ccccc2OC)C2CCS(=O)(=O)C2)cc1` (configuration not stated), which Ki (fMet-Leu-Phe receptor) is on record?
**A.** > 66.7 µM (inactive)

**Q.** Which results are given for `CSCCC(Nc1ncnc2ccc(Br)cc12)C(=O)O` (configuration not stated)?
**A.** IC50 [10]: 45 µM (not active); IC50 (Major prion protein): 1.91 µM (active); IC50 (cells [11]): > 138 µM (inactive)

**Q.** With `COc1ccc2c(C)cc(SCC(=O)c3ccc4c(c3)OCO4)nc2c1` as the compound, how does the EC50 [5] read?
**A.** 1.53 µM (active)

**Q.** What about the EC50 [6] of the same compound?
**A.** > 60 µM (not active)

**Q.** What about the IC50 [12] of the same compound?
**A.** > 67.5 µM (inactive)

**Q.** With `S=C(NCCSCc1ccc(Cl)cc1)Nc1ccccc1` as the compound, how does the IC50 [7] read?
**A.** 8.52 µM (active)

**Q.** And the IC50 [8]?
**A.** 83.3 µM (inactive)

**Q.** And the IC50 [9]?
**A.** 11.7 µM (inactive)

**Q.** Which EC50 (HEK293 [13]) does the source give for `Cc1cc(C(=O)CCl)c(C)n1CCc1ccccc1` here?
**A.** 13.1 µM (active)

**Q.** What about the IC50 (HEK293 [14]) of the same compound?
**A.** 5.94 µM (active)

**Q.** What about the IC50 (HEK293 [15]) of the same compound?
**A.** 18 µM (active)

**Q.** What about the EC50 [16] of the same compound?
**A.** > 20 µM (inactive)

**Q.** And the IC50 (HEK293 [17])?
**A.** 13.4 µM (inactive)

**Q.** And the IC50 (HEK293 [18])?
**A.** > 20 µM (inactive)

**Q.** What about the AC50 [19] of the same compound?
**A.** 16.9 µM (active)

**Q.** What about the EC50 (Protein RecA) of the same compound?
**A.** 24.4 µM (active)

**Q.** What about the IC50 (cells [1]) of the same compound?
**A.** > 29.9 µM (inactive)

**Q.** And the EC50 [2]?
**A.** 1.86 µM (active)

**Q.** And the IC50 [3]?
**A.** 9.06 µM (active)

**Q.** What about the EC50 (cells [4]) of the same compound?
**A.** > 29.9 µM (inactive)
